What all share (assay type): in vivo
In assay [1] the test system is corn earworm (CEW; Helicoverpa zea). As to the kind of experiment: Insecticidal test for corn earworm, 128-well diet tray assay. As to conditions: 144 h, 50 μg/cm2 on artificial diet, second instar larvae, six days at 25° C. The gist of the method: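 Second-instar H. zea larvae, three to five per well, on artificial diet surface-treated with 50 μg/cm^2 compound (90:10 acetone-water, dried), eight wells per compound. Held 6 days at 25° C, 14:10 light-dark; percent mortality averaged over wells.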

The subject of assay [2] is beet armyworm (BAW; Spodoptera exigua). As to the kind of experiment: Insecticidal test for beet armyworm, 128-well diet tray assay. The following applies: 144 h, 50 μg/cm2 on artificial diet, second instar larvae, six days at 25° C. In outline: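 Second-instar larvae, three to five per well, fed on artificial diet surface-treated with 50 μg/cm^2 compound (applied in 90:10 acetone-water, dried). Held 6 days at 25 °C, 14:10 light-dark; percent mortality scored per well and averaged over eight wells.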

The subject of assay [3] is green peach aphid (Myzus persicae). Description: Insecticidal test for green peach aphid in foliar spray assay. The following applies: 72 h, 200 ppm foliar spray on cabbage seedlings, graded after three days, Abbott corrected % control, read-out: Mortality GPA 200 ppm. In outline: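 Cabbage seedlings infested with 20-50 wingless adult and nymph aphids a day before treatment were sprayed to runoff at 200 ppm (0.025% Tween 20 diluent), four pots per treatment. After three days at about 25 °C and 40% RH, live aphids were counted and % control derived by Abbott's correction against solvent-sprayed plants.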

Usually mortality stands for the percentage killed.

Regarding `CC(=O)Nc1cccc(NC(=S)N/N=C/c2ccc(-c3ncn(-c4ccc(OC(F)(F)F)cc4)n3)cc2)n1` [Compound 44], the mortality at 50 µg/cm2 in assay [1] and in assay [2] was under 50% each time. Further, in assay [3], the mortality at 200 ppm is under 80%.
Regarding `Fc1cccc(Cl)c1NC(=S)N/N=C/c1ccc(-c2ncn(-c3ccc(OC(F)(F)F)cc3)n2)cc1` [Compound 63], the mortality at 50 µg/cm2 in assay [1] and in assay [2] was 50 to 100% each time. In assay [3], the mortality at 200 ppm is under 80%.
For the compound `CN(C)c1ccc(NC(=S)N/N=C/c2ccc(-c3ncn(-c4ccc(OC(F)(F)C(F)(F)F)cc4)n3)cc2)cc1` [Compound 36], the mortality at 50 µg/cm2 in assay [1] and in assay [2] was 50 to 100% each time. The mortality at 200 ppm in assay [3] is under 80%.
Take `FC(F)(F)Oc1ccc(-n2cnc(-c3ccc(/C=N/NC(=S)NCc4ccco4)cc3)n2)cc1` [Compound 27]: the mortality at 50 µg/cm2 in assay [1] and in assay [2] was 50 to 100% throughout. For the same compound, in assay [3], the mortality at 200 ppm was under 80%.
For `CN(C)C(=S)N/N=C/c1ccc(-c2ncn(-c3ccc(OC(F)(F)F)cc3)n2)cc1` [Compound 11], the mortality at 50 µg/cm2 in assay [1] and in assay [2] was 50 to 100% throughout. The mortality at 200 ppm in assay [3] is under 80%.
For the compound `COc1cc(C)c(NC(=S)N/N=C/c2ccc(C3=NN(c4ccc(OC(F)(F)F)cc4)C(C(N)=O)C3)cc2)c(C)c1` (stereo not drawn) [Compound 133], the mortality at 50 µg/cm2 in assay [1] and in assay [2] was 50 to 100% each time. Moreover, the mortality at 200 ppm in assay [3] was under 80%.
